Data on 14 molecules can be found in patent US20240083921A1, “BORATE DERIVATIVE AND USES THEREOF” (Reistone Biopharma Company Limited, priority 2020, published 2024).

Each structure is given as a SMILES string. Where two headings read alike, the source gives them in different places.

For one assay, the target named is PDE4B1 enzyme (Homo sapiens (Human), UniProt Q07343). The assay can be described thus: In vitro PDE4B enzyme activity detection test (IMAP FP, FAM-cAMP substrate). The format is biochemical. The settings on record: PDE4B1 0.04 nM, FAM-cAMP 0.1 μM, 25° C. 30 min. As to the method: Test Example 1 In vitro PDE4B Enzyme Activity Detection Test
1. Experimental Materials
First, a stock solution of the compound at a concentration of 10 mM was prepared in a test tube with 90% DMSO (10% water), and it was used to prepare a series of dilutions with a dilution factor of 1:5 and final concentrations starting from 100 μM to as low as 0.05 nM.
0.2 μl of the compound solution was transferred into a 384-well reaction plate, and 0.2 μl of 100% DMSO was transferred into both the negative and positive controls. Then, 10 μl of 2×PDE4B1 enzyme solution (making a final concentration of 0.04 nM) was added to each well, and 10 μl of 1×reaction buffer instead of the enzyme solution was added to the zero enzyme activity control wells. The plate was centrifuged at 1,000 rpm for 1 min and incubated at room temperature for 15 min. Next, 10 μl of 2×FAM-cAMP substrate solution (making a substrate final concentration of 0.1 μM) was added to each well of the 384-well reaction plate. The plate was centrifuged at 1,000 rpm for 1 min and the reaction was carried out at 25° C. for 30 min. After completion of the reaction, 60 μl of reaction stop solution was added to each well of the 384-well reaction plate to terminate the reaction, and the plate was incubated with shaking at 600 rpm on a shaker at room temperature in the dark for 60 min.
After the incubation, the RLU data were read and the inhibition rate was calculated. The IC50 value was calculated from the concentration-inhibition fitted curve, wherein the maximum value refers to the reading of the DMSO control and the minimum value refers to the reading of the zero enzyme activity control.
The in vitro inhibition of PDE4B1 enzyme activity by the Examples of the present disclosure was determined by the above test, and the measured IC50 value was shown in Table 1.

The test system of assay [1] is IL-23 secretion of DC cells differentiated from human mononuclear cells. Put plainly: In vitro inhibition of IL-23 secretion of DC cells differentiated from human mononuclear cells, Zymosan stimulation, ELISA. The format is cell-based. The note with it: Table 3: inhibition of IL-23 secretion of DC cells, Zymosan 200 μg/ml, 24 hours. Here is the method: Test Example 3 Experiment of in vitro Inhibition of IL-23 Secretion of DC Cells Differentiated from Human Mononuclear Cells by the Compounds
Day 0: Mononuclear cells were isolated from fresh human peripheral blood and purified and then resuspended in RPMI-1640 complete medium (RPMI-1640+10% FBS+1% P.S.+55 μM 2-Mercaptoethanol). When differentiating into DC cells, IL-4 at a concentration of 50 ng/ml and GM-CSF at 100 ng/ml were added to the medium. The cells were cultured at a density of 1×10^6 cells/mL in a culture dish with a diameter of 100 mm for differentiation in an incubator at 37° C. with a carbon dioxide concentration of 5%. Day 3: Half the volume of RPMI complete medium was replaced with fresh RPMI complete medium while maintaining the concentration of IL-4 at 50 ng/ml and GM-CSF at 100 ng/ml. Day 6: Non-adherent cells (DC cells) in the culture dish were collected and washed with PBS. The washed DC cells were resuspended with RPMI complete medium at a density of 1×10^6 cells/mL. Then. 1×10^5 DC cells were added to each well of the 96-well cell culture plate and pre-incubated with different dilutions of the compounds to be tested (or DMSO blank negative control at equivalent concentration) for 1 hour, followed by addition of 200 μg/ml of the TLR2 agonist Zymosan to stimulate the DC cells for 24 hours. Day 7: After 24 hours of Zymosan stimulation of DC cells. the supernatant in each well of the 96-well plate was collected and detected by ELISA for the concentration of IL-23.
The inhibition of IL-23 secretion of DC cells differentiated from human mononuclear cells by the compounds of the present disclosure was determined by the above test, and the determined IC50 value was shown in Table 3.

Assay [2] has as its system imiquimod-induced psoriasis mouse model. Put plainly: Suppression of imiquimod-induced psoriasis in mice (topical ointment). The format is in vivo, Balb/c female mice. The note with it: for Ratio of spleen weight to body weight Mean / Total clinical score Mean / Erythema score Mean / Scale score Mean / Thickness score Mean: IMQ mice; for Ratio of spleen weight to body weight Mean: Day 7, percentage of spleen to body weight; for Total clinical score Mean: endpoint; for Erythema score Mean / Scale score Mean / Thickness score Mean: scale 0-4; for clinical score at the endpoint (statement): each dose of Compound 12-1; for clinical score at the endpoint (statement) / effect on the ratio of spleen weight to body weight (statement): versus model; for effect on the ratio of spleen weight to body weight (statement): three dose groups of Compound 12-1. From the text: Test Example 4 Experiment of Suppression of Imiquimod-Induced Psoriasis
An appropriate amount of Compound 12-1 was formulated into an ointment with the following components: 0.1% of Compound 12-1, 9% of hexanediol, 78.8% of white petrolatum, 5% of paraffin, 7% of glyceryl mono- and distearate, and 0.1% of […], which were mechanically stirred until an ointment was formed.
1) Model Establishment and Drug Administration
7-Week-old Balb/c female mice were used and the hair on their back in an area of 2 cm×3 cm was shaved the day before the experiment. On Days 1-7 of the experiment, the test compounds were applied on the skin for 6 hours, and then imiquimod (IMQ) ointment (Aldara (5%)) was continuously applied to the back skin of mice for 7 days, so as to establish a mouse model of psoriasis, while the control group was given the same dose of petrolatum ointment. On Days 3, 5 and 7, the severity of skin inflammation was assessed, including measurement of skin thickness, crusting and erythema, scored on a 5-point scale (0-4) respectively. The total score was used to assess the severity of skin inflammation. On Day 7 of the experiment, the spleen was collected and weighed, and the percentage of spleen to body weight was calculated to assess the immunosuppressive effect of the drug.
Normal control group, model control group, low, medium and high dose groups of Compound 12-1 (0.01%, 0.03% and 0.1%), 0.03% Compound 1-1 group, and 0.03% reference Compound A group were set up in this experiment.
The total score of the degree of skin inflammation was the clinical score, the indicators of which were relatively subjective, and higher score indicated more serious disease. The degree of increase in skin thickness was an objective assessment indicator, and more increase in thickness indicated more serious disease. The ratio of spleen weight to body weight was an objective assessment indicator, and smaller ratio of spleen weight to body weight indicated stronger immunosuppressive effect of the drug.

Assay [3] has as its system TNF-α release from peripheral blood mononuclear cells (PBMCs). Put plainly: Inhibition of pro-inflammatory cytokine (TNF-α) release from LPS-stimulated PBMCs, ELISA. The format is cell-based. The note with it: LPS 0.1 ng/ml, 24 hours. From the text:
Test Example 2 Inhibitory Effect of Compounds on the Release of Pro-Inflammatory Cytokines from Peripheral Blood Mononuclear Cells (PBMCs)
Frozen PBMCs were thawed and detected by Trypan blue staining for cell viability and number. The thawed PBMCs were washed with RPMI1640 complete medium (RPMI1640+10% FBS+1% PS) and centrifuged, and the supernatant was discarded. The PBMCs were resuspended with RPMI1640 complete medium and the cell density was adjusted to 2×10^6 cells/mL. 2×10^5 PBMC cells were plated in a 96-well cell culture plate, and the compounds to be tested were added at different concentrations, in a 1:5 serial dilution of 9 concentrations starting from a maximum compound concentration of 100 μM, each in duplicate. LPS was added at a final concentration of 0.1 ng/ml, making a total volume of 200 μL. For the negative and positive controls, only LPS and DMSO were added to the negative control well, while 1 μg/mL of dexamethasone was added to the positive control well in addition to cells and LPS as. The cells were incubated in an incubator at 37° C. for 24 hours. After completion of the incubation, 100 μL of cell culture supernatant was collected and detected by ELISA for the TNF-α level. 100 μL of CellTiter-Glo was added to the remaining cells in each well to detect the cell viability level. The IC50 value of inhibition of TNF-α release by the compounds was calculated.
The in vitro inhibition of pro-inflammatory cytokine release of PBMCs by the Examples of the present disclosure was determined by the above test, and the determined IC50 value was shown in Table 2.
Background: In an ELISA, binding on a coated surface is turned into a signal by an enzyme label.

[4] abbreviates: Compound A 0.03%, Compound 1-1 0.03%.

Chain of PDE4B1 enzyme (Q07343 whole entry): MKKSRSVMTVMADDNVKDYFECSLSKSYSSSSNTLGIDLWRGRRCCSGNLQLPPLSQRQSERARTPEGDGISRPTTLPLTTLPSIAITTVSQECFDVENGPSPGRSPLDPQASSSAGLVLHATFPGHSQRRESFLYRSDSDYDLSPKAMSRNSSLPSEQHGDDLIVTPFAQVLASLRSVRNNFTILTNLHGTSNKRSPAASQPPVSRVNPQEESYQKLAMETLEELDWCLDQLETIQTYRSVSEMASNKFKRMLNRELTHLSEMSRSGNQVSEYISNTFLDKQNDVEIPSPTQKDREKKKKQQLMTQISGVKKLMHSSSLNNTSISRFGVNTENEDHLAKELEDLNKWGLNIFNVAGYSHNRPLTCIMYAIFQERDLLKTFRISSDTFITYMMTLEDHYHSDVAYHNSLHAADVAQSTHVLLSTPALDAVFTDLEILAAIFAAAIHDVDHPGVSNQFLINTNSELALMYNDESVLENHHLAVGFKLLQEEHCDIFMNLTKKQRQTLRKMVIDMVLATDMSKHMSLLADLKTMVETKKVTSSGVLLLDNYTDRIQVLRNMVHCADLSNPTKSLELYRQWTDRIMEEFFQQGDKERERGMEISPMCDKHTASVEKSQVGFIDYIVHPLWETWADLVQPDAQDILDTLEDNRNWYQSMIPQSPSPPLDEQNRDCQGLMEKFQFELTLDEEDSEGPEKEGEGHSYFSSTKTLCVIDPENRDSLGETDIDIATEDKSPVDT

With `COc1ccc(-c2cncc([C@@H]3COB(O)C3)c2)c2c1OC1(CCCC1)C2` [Compound 1-1], half-maximal inhibition against PDE4B1 enzyme (IC50) was put at 0.11 nM. For the same molecule, in assay [1] (read-out: PBMC IC50), the IC50 stood at 0.12 nM. Moreover, in assay [2] (0.03% applied on skin), the “Ratio of spleen weight to body weight Mean” value (shortened to “Ratio … to body weight Mean”) was 0.63, the “Total clinical score Mean” value came to 8.5, the “Erythema score Mean” value is on record as 3.63 and the “Scale score Mean” value was found to be 2.75. Also, in assay [2] (0.03% applied on skin), the “Thickness score Mean” value was 2.13. The “single item scores (statement)” value in assay [2] (Compound 1-1 0.03%, each dose group of Compound 12-1) was “mainly improve scab and reduce skin thickness”. Also, in assay [2] (setting [4]), the “clinical score at the endpoint (statement)” value is “significantly reduce the clinical score” and the “effect on the ratio of spleen weight to body weight (statement)” value is given as “significantly reduce the ratio of spleen weight to body weight”. Also, the “effect on the ratio of spleen weight to body weight compared with Compound A” value in assay [2] (same dose (0.03%)) was “significantly different from that of Compound A”. For the same molecule, the IC50 in assay [3] (read-out: PBMC IC50) worked out at 0.32 nM.
On to `COc1ccc(-c2cncc([C@H]3COB(O)C3)c2)c2c1OC1(CCCC1)C2` [Compound 1-2], for which the IC50 at PDE4B1 enzyme is 0.4 nM; in assay [3] (read-out: PBMC IC50), 3.26 nM.
For the molecule `COc1ccc(-c2cncc(C3COB(O)C3)c2)c2c1OC(C)C2` (stereo not drawn) [Compound 2], the IC50 on PDE4B1 enzyme was 4.5 nM.
On PDE4B1 enzyme, `COc1ccc(-c2cccc(C3COB(O)C3)c2)c2c1OC1(CCCC1)C2` (stereo not drawn) [Compound 3] showed an IC50 of 1.1 nM.
On to `COc1ccc(-c2cncc(C3COB(O)C3)n2)c2c1OC1(CCCC1)C2` (stereo not drawn) [Compound 4], for which the results for the half-inhibitory concentration (IC50) (against PDE4B1 enzyme; in assay [3] (PBMC)) were 0.083 nM and 2.15 nM, respectively.
In turn, `COc1ccc(-c2cc(C3COB(O)C3)cnn2)c2c1OC1(CCCC1)C2` (stereo not drawn) [Compound 5] displayed an IC50 in assay [3] (PBMC) of 1.56 nM.
In the case of `COc1ccc(-c2cncc(C3COB(O)C3)c2)c2c1OC(C)(C)C2` (stereo not drawn) [Compound 6], the values for the IC50 (against PDE4B1 enzyme; in assay [3] (PBMC)) were 0.41 nM and 1.56 nM, respectively.
Consider `COc1ccc(-c2cncc(C3COB(O)C3)c2)c2cc(C(F)(F)F)nn12` (stereo not drawn) [Compound 7], for which the 50% inhibitory concentration (IC50) was found to be 0.055 nM against PDE4B1 enzyme and 0.36 nM in assay [3] (PBMC).
In assay [3] (PBMC), `COc1ccc(-c2cncc(C3COB(O)C3)c2)c2c1OC(C)(C)CO2` (stereo not drawn) [Compound 8] came in with an IC50 of 0.74 nM.
`COc1ccc(-c2cncc(C3COB(O)C3)c2)c2c1OC(C)(C)CC2` (stereo not drawn) [Compound 9]: the values for the IC50 (against PDE4B1 enzyme; in assay [3] (PBMC)) were 0.25 nM and 0.3 nM, respectively.
In the case of `COc1ccc(-c2cncc(C3COB(O)C3)c2)c2ccc(C(F)(F)F)nc12` (stereo not drawn) [Compound 10], the 50% inhibitory concentration (IC50) against PDE4B1 enzyme was determined as 0.16 nM; in assay [3] (PBMC), 0.9 nM.
In turn, `COc1ccc(-c2cncc([C@@H]3COB(O)C3)n2)c2c1OC(C)(C)CC2` [Compound 12-1] gave an IC50 in assay [1] (Homo sapiens, PBMC) of 0.018 nM. In assay [2] (0.01% applied on skin), the “Ratio … to body weight Mean” value turned out to be 0.64, the “Total clinical score Mean” value was found to be 9.5, the “Erythema score Mean” value is on record as 4 and the “Scale score Mean” value is 3.13. Also, in assay [2] (0.01% applied on skin), the “Thickness score Mean” value was found to be 2.38. For the same molecule, in assay [2] (0.03% applied on skin), the “Ratio … to body weight Mean” value was determined as 0.43, the “Total clinical score Mean” value is given as 7.57, the “Erythema score Mean” value is on record as 3.86 and the “Scale score Mean” value stood at 2.14. In addition, the “Thickness score Mean” value in assay [2] (0.03% applied on skin) came out at 1.57. In assay [2] (0.1% applied on skin), the “Ratio … to body weight Mean” value was 0.31, the “Total clinical score Mean” value amounted to 6.75, the “Erythema score Mean” value was 3.63 and the “Scale score Mean” value is on record as 1.38. The “Thickness score Mean” value in assay [2] (0.1% applied on skin) was 1.75. In addition, half-maximal inhibition in assay [3] (PBMC) (IC50) required 0.055 nM.
Take `CCCOc1cc(-c2cncc([C@@H]3COB(O)C3)c2)ccc1OC` [Compound A, reference compound]: the midpoint of inhibition against PDE4B1 enzyme, the IC50, lay at 0.3 nM. This molecule also returned an IC50 in assay [1] (Homo sapiens, PBMC) of 0.61 nM. Also, in assay [2] (0.03% applied on skin), the “Ratio … to body weight Mean” value was found to be 0.96, the “Total clinical score Mean” value is listed as 8.33, the “Erythema score Mean” value came to 3.33 and the “Scale score Mean” value is 2.5. In addition, in assay [2] (0.03% applied on skin), the “Thickness score Mean” value worked out at 2.5. Besides, in assay [2] (setting [4]), the “clinical score at the endpoint (statement)” value is “significantly reduce the clinical score” and the “effect on the ratio of spleen weight to body weight (statement)” value was “no significant effect”. The “increase of skin thickness (statement)” value in assay [2] (low and high dose groups of Compound 12-1 (0.01%, 0.1%), Compound A 0.03%) was “no significant effect”. In assay [3] (PBMC), this molecule registered an IC50 of 1.16 nM.
For the molecule `O=C(Nc1c(Cl)cncc1Cl)c1ccc(OC(F)F)c(OCC2CC2)c1` [Roflumilast, reference compound], half-maximal inhibition in assay [1] (Homo sapiens, PBMC) (IC50) was put at 12.9 nM.

Usually IC50 stands for the concentration at which inhibition is half-maximal.
